Measured values taken from US9169241B2, “Quinolinyloxyphenylsulfonamides” (Max-Planck-Gesellschaft Zur Forderung der Wissenschaften …, priority 2009, dated 2015).
Read-outs that look alike come from different tables or passages of the source.

Legend:
[1] = tested on: Hs578T; experiment: Matrigel outgrowth assay/branching assay; assay type: cell-based; conditions: Homo sapiens, Hs-578T; HS578T cell line; Table Ib; read-out: Total branching inhibition in Matrigel HS578T
In short: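 Read-out: microscopic images of invasive branching structures at 48 h, 72 h and 96 h. Cells sat on a 3 mg/ml Matrigel layer (set 1 h, 37° C) with compound at 3.125, 1.56 and 0.78 μM or DMSO. A concentration counts as positive only with complete branching inhibition.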

[2] = tested on: tumor cell; experiment: Matrigel outgrowth assay/branching assay (Table Va); assay type: cell-based
Description: The Matrigel outgrowth assay is based on the ability of tumor cell to penetrate a solid gel of extracellular matrix proteins mimicking the metastasis formation in vivo. While cells with low invasive potential appear as roundish cell or cell cluster, cells with high invasive potential penetrate the Matrigel and form polymorphic structures. In detail 65 μl of Matrigel matrix (Matrigel™ Matrix, BD Biosciences, Bedford, Mass., USA) with a concentration of 3 mg/ml have been polymerized in 96 well plates for 1 h at 37° C. Subsequently 5000 cell/well were seeded into each well containing cell culture medium and indicated compound with concentrations of 3.125 μM, 1.56 μM and 0.78 μM as well as DMSO control. After 48 h, 72 h and 96 h images of cell were taken on an inverted microscope using a 5× objective (Zeiss Axiovert S100 microscope Carl Zeiss UK, Welwyn Garden City, UK). Only compound concentrations were total branching inhibition was evident were accounted as positive. Method was used as previously described, with some modifications (Thompson E W, et al. Association of increased basement membrane invasiveness with absence of estrogen receptor and expression of vimentin in human breast cancer cell lines. J Cell Physiol 1992; 150:534-44).

[3] = tested on: SF763; experiment: Apoptosis assay (Cellomics, nucleus condensation); assay type: cell-based; conditions: Table III, read-out: Apoptosis induction in SF763
Source text: (§1) The Cellomics BioApplication (Thermo Fischer Cellomics Products, Pittsburgh, Pa.) is an automated image analysis algorithm that provides detailed analysis of phenotypes related to apoptosis. As one of the most prominent characteristics of apoptotics cell a nucleus condensation takes place. This can be measured fluorescence signal intensity using a CCD camera on fully automated microscope system. The Cellomics system is able to quantify the fluorescence intensity per single nucleus and calculates the variation of signal intensity in each cell population. […] Additionally the number of detected cell decreases normally in apoptotic cell populations. In detail 5000 cell per 96 well were labeled with DNA intercalating dye (Hoechst 33342, Sigma, Steinheim, Germany) to visualize the nucleus in a fluorescence microscope under live conditions. The apoptosis assay was performed 24 h and 48 h after addition of compound at concentrations 12.5 μM, 6.25 μM, 3.125 μM, 1.56 μM, 0.78 μM, 0.39 μM as well as DMSO control for 48 h.

[4] = tested on: SF126; experiment: Apoptosis assay (Cellomics, nucleus condensation); assay type: cell-based; conditions: Homo sapiens, SF-126, Table III, read-out: Apoptosis induction in SF126
Source text: as §1

[5] = tested on: U118; experiment: Apoptosis assay (Cellomics, nucleus condensation); assay type: cell-based; conditions: Table III, read-out: Apoptosis induction in U118
Source text: as §1

[6] = tested on: Hs578T; experiment: Apoptosis assay (Cellomics, nucleus condensation); assay type: cell-based; conditions: Homo sapiens, Hs-578T, Table III, read-out: Apoptosis induction in Hs578T
Source text: as §1

[7] = tested on: C8161; experiment: Apoptosis assay (Cellomics, nucleus condensation); assay type: cell-based; conditions: Homo sapiens, Table III, read-out: Apoptosis induction in C8161
Source text: as §1

[8] = tested on: U138; experiment: Apoptosis assay (Cellomics, nucleus condensation); assay type: cell-based; conditions: Table III, read-out: Apoptosis induction in U138
Source text: as §1

[9] = tested on: indicated cell line; experiment: Wound healing migration assay (Table IV); assay type: cell-based; conditions: compounds at 12.5, 6.25, 3.125 μM, 48 h-72 h
Description: This method mimics cell migration during wound healing in vivo. The basic steps involve creating a “wound” in a cell monolayer, capturing the images at the beginning and at regular intervals during cell migration to close the wound, and comparing the images to quantify the migration rate of the cells. In detail, 150000 cell/24 well have been seeded and allowed to form a monolayer overnight. Subsequently a “wound” or “scratch” has been performed with a 1000 μl pipette tip. The STDV of wound size is normally below 10% at time point t0. The assay was stopped by fixation with 0.05% Crystal violet/20% methanol when control scratches were closed. The assay was terminated between 48 h and 72 h depending on the migration potential of the indicated cell line. The “wounds” were visualized with a Zeiss Axiovert S100 microscope (Carl Zeiss UK, Welwyn Garden City, UK). The tested compounds were used at 12.5 μM, 6.25, 3.125 μM and DMSO control. IC50 values have been calculated as 50% wound size in between t0 and t48 or t72.

[10] = tested on: cells; experiment: Boyden chamber migration assay (Table VI); assay type: cell-based; conditions: Homo sapiens, Hs-578T, 16 h, Hs578T cells; 16 h migration
Description: The Boyden chamber assay is based on a chamber of two medium-filled compartments separated by a microporous membrane of 8 μM (Cell culture insert 8.0 μM pore size, BD Biosciences, Bedford, Mass.). The boyden chamber migration assays were carried out according to the supplier's instructions. In general, 20000 cells are placed in the upper compartment with medium containing 0% FCS plus 0.1% BSA and are allowed to migrate 16 h through the pores of the membrane into the lower compartment, which is filled with cell culture medium containing 10% FCS as chemotactic agents. The cells remaining in the insert were removed with a cotton swab, and the cells on the bottom of the filter were fixed and counted. (Zhang Y X, et al. AXL is a potential target for therapeutic intervention in breast cancer progression. Cancer Res. 2008; 68:1905-15).

[11] = tested on: viable cells in culture; experiment: Cell viability assay at 10 μM (CellTiter-Glo, Table VII); assay type: cell-based; conditions: compound 10 μM, 72 h;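 further: graded A 0-20%; B 21-40%; C 41-60%; D over 60% viable cells relative to DMSO control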
In short: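 Viable cell number was measured with the CellTiter-Glo Luminescent Cell Viability Assay (Promega), following the manufacturer's protocol, which quantifies ATP as a marker of metabolically active cells. In 96-well plates, 1000 cells/well in 100 μl medium were exposed to compound at 10 μM, or to DMSO control, for 72 h. Values were calculated relative to DMSO-control ATP.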

[12] = Homo sapiens, C8161 cells, read-out: Total branching inhibition in Matrigel C8161
[13] = Homo sapiens, Hs-578T, Hs578T cells, read-out: Total branching inhibition in Matrigel Hs578T
[14] = U118 cells, read-out: Total branching inhibition in Matrigel U118
[15] = U138 cells, read-out: Total branching inhibition in Matrigel U138
[16] = Homo sapiens, C8161 cells, read-out: IC50 Wound healing Assay C8161
[17] = SF763 cells, read-out: IC50 Wound healing Assay SF763
[18] = Homo sapiens, HCT-116, HCT116 def, read-out: percentage (%) of viable cells HCT 116def
[19] = Homo sapiens, HCT-116, HCT116 wt, read-out: percentage (%) of viable cells HCT 116wt
[20] = Homo sapiens, HT-29, HT29, read-out: percentage (%) of viable cells HT29
[21] = Homo sapiens, NCI-H358, H358, read-out: percentage (%) of viable cells H358
[22] = Homo sapiens, NCI-H1650, H1650, read-out: percentage (%) of viable cells H1650
[23] = Homo sapiens, NCI-H1666, H1666, read-out: percentage (%) of viable cells H1666
[24] = Homo sapiens, NCI-H1975, H1975, read-out: percentage (%) of viable cells H1975
[25] = Homo sapiens, NCI-H1993, H1993, read-out: percentage (%) of viable cells H1993
[26] = Homo sapiens, A549, read-out: percentage (%) of viable cells A549
[27] = Homo sapiens, HCC827, read-out: percentage (%) of viable cells HCC827
[28] = Homo sapiens, SW480, read-out: percentage (%) of viable cells SW480
[29] = RKO, read-out: percentage (%) of viable cells RKO

| Compound | melting point [°C] | IC50 [1] [µM] | IC50 [2, 12] [µM] | IC50 [2, 13] [µM] | IC50 [2, 14] [µM] | IC50 [2, 15] [µM] | IC50 [3] [µM] | IC50 [4] [µM] | IC50 [5] [µM] | IC50 [6] [µM] | IC50 [7] [µM] | IC50 [8] [µM] | IC50 [9, 16] [µM] | IC50 [9, 17] [µM] | IC50 [10] [µM] | viability at 10 µM [11, 18] [%] | viability at 10 µM [11, 19] [%] | viability at 10 µM [11, 20] [%] | viability at 10 µM [11, 21] [%] | viability at 10 µM [11, 22] [%] | other results |
| --- | --- | --- | --- | --- | --- | --- | --- | --- | --- | --- | --- | --- | --- | --- | --- | --- | --- | --- | --- | --- | --- |
| COc1cc2c(Oc3ccc(NS(=O)(=O)c4ccc(F)c(F)c4F)cc3F)ccnc2cc1OCCCN1CCN(C)CC1 [Example 17, 2,3,4-Trifluoro-N-(3-fluoro-4-{6-methoxy-7-[3-(4-methyl-piperazin-1-yl)-propoxy]-quinolin-4-yloxy}-phenyl)-benzenesulfonamide] | 88 to 90 | ≤ 10 | ≤ 5 | ≤ 5 | ≤ 5 | 5 to 50 | ≤ 12.5 | ≤ 12.5 | 12.5 to 50 | ≤ 12.5 | ≤ 12.5 | ≤ 12.5 | ≤ 12.5 | 12.5 to 50 | ≤ 5 | – | – | – | – | – | – |
| COc1cc(S(=O)(=O)Nc2ccc(Oc3ccnc4cc(OCCCN5CCN(C)CC5)c(OC)cc34)c(F)c2)ccc1F [Example 18, 4-Fluoro-N-(3-fluoro-4-{6-methoxy-7-[3-(4-methyl-piperazin-1-yl)-propoxy]-quinolin-4-yloxy}-phenyl)-3-methoxy-benzenesulfonamide] | 167 to 169 | ≤ 10 | ≤ 5 | ≤ 5 | ≤ 5 | ≤ 5 | ≤ 12.5 | ≤ 12.5 | ≤ 12.5 | ≤ 12.5 | ≤ 12.5 | ≤ 12.5 | ≤ 12.5 | 12.5 to 50 | ≤ 5 | 0 to 20 | 0 to 20 | 0 to 20 | 0 to 20 | 21 to 40 | viability at 10 µM [11, 23]: 21 to 40%; viability at 10 µM [11, 24]: 0 to 20%; viability at 10 µM [11, 25]: 0 to 20%; viability at 10 µM [11, 26]: 21 to 40%; viability at 10 µM [11, 27]: 21 to 40%; viability at 10 µM [11, 28]: 0 to 20%; viability at 10 µM [11, 29]: 0 to 20% |
| COc1cc2c(Oc3ccc(NS(=O)(=O)c4ccccc4F)cc3F)ccnc2cc1OCCCN1CCN(C)CC1 [Example 26, 2-Fluoro-N-(3-fluoro-4-{6-methoxy-7-[3-(4-methyl-piperazin-1-yl)-propoxy]-quinolin-4-yloxy}-phenyl)-benzenesulfonamide] | 185 to 186 | ≤ 10 | ≤ 5 | ≤ 5 | ≤ 5 | 5 to 50 | ≤ 12.5 | 12.5 to 50 | 12.5 to 50 | ≤ 12.5 | ≤ 12.5 | ≤ 12.5 | 12.5 to 50 | ≤ 12.5 | ≤ 5 | – | – | – | – | – | – |
| COc1cc2nccc(Oc3ccc(NS(=O)(=O)c4ccccc4C(F)(F)F)cc3F)c2cc1OCCCN1CCN(C)CC1 [Example 86, N-(3-Fluoro-4-{7-methoxy-6-[3-(4-methyl-piperazin-1-yl)-propoxy]-quinolin-4-yloxy}-phenyl)-2-trifluoromethyl-benzenesulfonamide] | – | ≤ 10 | ≤ 5 | ≤ 5 | ≤ 5 | 5 to 50 | ≤ 12.5 | ≤ 12.5 | ≤ 12.5 | ≤ 12.5 | ≤ 12.5 | ≤ 12.5 | 12.5 to 50 | 12.5 to 50 | ≤ 5 | 21 to 40 | 21 to 40 | 0 to 20 | 0 to 20 | 21 to 40 | viability at 10 µM [11, 23]: 41 to 60%; viability at 10 µM [11, 24]: 21 to 40%; viability at 10 µM [11, 25]: 0 to 20%; viability at 10 µM [11, 26]: > 60%; viability at 10 µM [11, 27]: 41 to 60%; viability at 10 µM [11, 28]: 21 to 40%; viability at 10 µM [11, 29]: 21 to 40% |
